These results are taken from patent US20110190336A1, “AZABENZIMIDAZOLONES” (CARA THERAPEUTICS, INC., priority 2008, published 2011).

Structures are written as SMILES.

In the experiment the target is T1, human DP2 receptor (Homo sapiens, UniProt Q9Y5Y4).
T1 construct: expressed in transfected cells; host or cells: CHO-K1 FLP-In (Invitrogen, catalog no. R758-07), stably transfected
T1 sequence (Q9Y5Y4 1-395): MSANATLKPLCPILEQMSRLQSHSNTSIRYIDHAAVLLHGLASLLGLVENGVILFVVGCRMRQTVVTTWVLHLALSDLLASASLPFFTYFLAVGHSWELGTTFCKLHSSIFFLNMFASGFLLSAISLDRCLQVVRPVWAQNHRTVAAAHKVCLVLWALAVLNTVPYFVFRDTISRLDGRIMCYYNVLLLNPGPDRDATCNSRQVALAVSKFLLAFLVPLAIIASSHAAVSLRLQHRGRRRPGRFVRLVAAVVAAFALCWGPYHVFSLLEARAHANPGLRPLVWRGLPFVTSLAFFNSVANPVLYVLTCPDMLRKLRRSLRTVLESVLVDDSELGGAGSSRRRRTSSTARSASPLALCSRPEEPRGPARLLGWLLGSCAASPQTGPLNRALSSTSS
Nature of the experiment: Prostaglandin D2 binding inhibition assay (scintillation proximity assay, 3H PGD2, membranes of transfected CHO cells). The following applies: SPA, 5.5 nM 3H PGD2, CHO-K1 FLP-In human DP2 membranes; upper limit determinable 30 μM; read-out: IC50 ranges for inhibition of PGD2 binding to human DP2. The procedure:
The ability of compounds to inhibit binding of prostaglandin D2 (PGD2) to the human DP2 receptor was measured using a scintillation proximity assay (SPA). Chinese Hamster Ovary FLP-In cell lines (CHO-K1 FLP-In, Invitrogen, catalog no. R758-07) were stably transfected with the human DP2 gene (Genebank: AY507142). Cell lines were grown in suspension in EX-CELL 302 CHO Serum-free medium (Sigma, catalog no. 14324C) supplemented with 1% Fetal Bovine Serum (Invitrogen no. 10099-141), 2 mM L-glutamine (Invitrogen, catalog no. 25030-081) and 0.5 mg/ml Hygromycin B (Invitrogen, catalog no. 10687-010). Cells were collected by centrifugation in a Beckman Coulter Allegra X-12R centrifuge at 150×g for 5 minutes at room temperature.
Membranes from transfected cells were isolated for binding assays. Cell pellets containing approximately 2×10^9 cells were resuspended in 35 ml of cold membrane homogenization buffer (10 mM Tris (Sigma, catalog no. T2663), 1 mM EDTA (Fluka BioChemika no. 03690), and 70 μl of protease inhibitor cocktail (Sigma, catalog no. P8340)). Cells were homogenized with 30 strokes of a dounce homogenizer (Kontes, catalog no. 885303-0040), and the solution centrifuged at 200×g for 10 minutes. The supernatant was transferred to a 50 ml Oakridge tube (Beckman, catalog no. 357000) and centrifuged in a Beckman Coulter Avanti J-26×PI centrifuge with a JA30.50 rotor at 81,000×g for 1 hour at 15° C. The pellet was resuspended in membrane storage buffer (50 mM Tris (Sigma, catalog no. T2663), 2.5 mM EDTA (Fluka BioChemika no. 03690), 5 mM magnesium chloride (Sigma, catalog no. M1028), 100 mg/ml sucrose (Sigma, catalog no. 50389) and a 1:500 dilution of protease inhibitor cocktail (Sigma, catalog no. P8340)) and the total protein was quantitated using a BCA protein measurement kit (Pierce, catalog no. 23225). Aliquots were frozen at −80° C. until used. Compounds were tested for their ability to inhibit PGD2 binding to the purified membranes. 5 μg of the purified membranes, 0.25 mg of wheat germ agglutinin PVT SPA beads (GE Healthcare, catalog no. RPNQ0060) and 5.5 nM of ^3H PGD2 (PerkinElmer, catalog no. NET-616) were mixed in assay buffer ((50 mM Tris (Sigma, catalog no. T2663), 10 mM magnesium chloride (Sigma, catalog no. M1028), 100 mM sodium chloride (Sigma, catalog no. S6546) and 0.1% bovine serum albumin (Sigma, catalog no. A2153)). Using a Multidrop bulk dispenser, 75 μl of the assay mixture was dispensed in Optiplates (PerkinElmer, catalog no. 6007299) containing the compounds to be tested. After a 60 minute incubation period at room temperature, the plates were read on a PerkinElmer Topcount NXT HTS, and individual wells were quantitated as counts per minute (CPM). Data were expressed as a percent of the difference between the maximum and minimum responses. IC50 values (the concentration of compound producing 50% of the maximal response) were determined using a two-parameter non-linear regression algorithm analyzed using CambridgeSoft Bioassay software. Table 2 gives the range of IC50 values for claimed compounds in the binding assay.
Consider `O=C(O)Cn1c(=O)n(C2CCN(S(=O)(=O)c3ccc(Cl)cc3F)CC2)c2ncccc21` [Compound 30, 2-(3-(1-(4-chloro-2-fluorophenylsulfonyl)piperidin-4-yl)-2-oxo-2,3-dihydro-1H-imidazo[4,5-b]pyridin-1-yl)acetic acid], for which the concentration for half-maximal inhibition (IC50) is less than 1000 nM.

`O=C(O)Cn1c(=O)n(C2CCN(S(=O)(=O)c3ccc(Cl)cc3Cl)CC2)c2ncccc21` [Compound 31, 2-(3-(1-(2,4-dichlorophenyl-sulfonyl)piperidin-4-yl)-2-oxo-2,3-dihydro-1H-imidazo[4,5-b]pyridin-1-yl)acetic acid]: the IC50 is less than 1000 nM.

As for `O=C(O)Cn1c(=O)n(C2CCN(S(=O)(=O)c3cccc4ccccc34)CC2)c2ncccc21` [Compound 32, 2-(3-(1-(naphthalen-1-ylsulfonyl)piperidin-4-yl)-2-oxo-2,3-dihydro-1H-imidazo[4,5-b]pyridin-1-yl)acetic acid], the IC50 is 1000 to 10000 nM.

Take `O=C(O)Cn1c(=O)n(C2CCN(S(=O)(=O)c3ccccc3OC(F)(F)F)CC2)c2ncccc21` [Compound 33, 2-(2-oxo-3-(1-(2-(trifluoromethoxy)phenylsulfonyl)piperidin-4-yl)-2,3-dihydro-1H-imidazo[4,5-b]pyridin-1-yl)acetic acid]: the IC50 fell in the range of 1000 to 10000 nM.

On to `O=C(O)Cn1c(=O)n(C2CCN(S(=O)(=O)C3CCCCC3)CC2)c2ncccc21` [Compound 34, 2-(3-(1-(cyclohexylsulfonyl)piperidin-4-yl)-2-oxo-2,3-dihydro-1H-imidazo [4,5-b]pyridin-1-yl)acetic acid], for which the IC50 lay in the range of 1000 to 10000 nM.

On to `O=C(O)Cn1c(=O)n(C2CCN(S(=O)(=O)c3ccc(Cl)c(Cl)c3)CC2)c2ncccc21` [Compound 35, 2-(3-(1-(3,4-dichlorophenyl-sulfonyl)piperidin-4-yl)-2-oxo-2,3-dihydro-1H-imidazo[4,5-b]pyridin-1-yl)acetic acid], for which the IC50 was in the range of 1000 to 10000 nM.

Regarding `Cc1cc(F)ccc1S(=O)(=O)N1CCC(n2c(=O)n(CC(=O)O)c3cccnc32)CC1` [Compound 36, 2-(3-(1-(4-fluoro-2-methylphenyl-sulfonyl)piperidin-4-yl)-2-oxo-2,3-dihydro-1H-imidazo[4,5-b]pyridin-1-yl)acetic acid], the 50% inhibitory concentration (IC50) was less than 1000 nM.

In the case of `O=C(O)Cn1c(=O)n(C2CCN(S(=O)(=O)c3cccc(Cl)c3)CC2)c2ncccc21` [Compound 37, 2-(3-(1-(3-chlorophenyl-sulfonyl)piperidin-4-yl)-2-oxo-2,3-dihydro-1H-imidazo[4,5-b]pyridin-1-yl)acetic acid], the IC50 lay within 1000 to 10000 nM.

Consider `Cc1cccc(S(=O)(=O)N2CCC(n3c(=O)n(CC(=O)O)c4cccnc43)CC2)c1` [Compound 38, 2-(2-oxo-3-(1-(m-tolylsulfonyl)piperidin-4-yl)-2,3-dihydro-1H-imidazo[4,5-b]pyridin-1-yl)acetic acid], for which the IC50 was in the range of 1000 to 10000 nM.

As to `O=C(O)Cn1c(=O)n(C2CCN(S(=O)(=O)c3ccc(C(F)(F)F)cc3)CC2)c2ncccc21` [Compound 39, 2-(2-oxo-3-(1-(4-(trifluoromethyl)phenylsulfonyl)piperidin-4-yl)-2,3-dihydro-1H-imidazo[4,5-b]pyridin-1-yl)acetic acid], the IC50 was 1000 to 10000 nM.

As to `O=C(O)Cn1c(=O)n(C2CCN(S(=O)(=O)c3ccc(F)c(F)c3)CC2)c2ncccc21` [Compound 40, 2-(3-(1-(3,4-difluorophenylsulfonyl)piperidin-4-yl)-2-oxo-2,3-dihydro-1H-imidazo[4,5-b]pyridin-1-yl)acetic acid], the IC50 fell in the range of 1000 to 10000 nM.

For the molecule `O=C(O)Cn1c(=O)n(C2CCN(S(=O)(=O)c3cccc(C(F)(F)F)c3)CC2)c2ncccc21` [Compound 41, 2-(2-oxo-3-(1-(3-(trifluoromethyl)phenylsulfonyl)piperidin-4-yl)-2,3-dihydro-1H-imidazo[4,5-b]pyridin-1-yl)acetic acid], the IC50 lay within 1000 to 10000 nM.

Take `O=C(O)Cn1c(=O)n(C2CCN(S(=O)(=O)c3ccc(OC(F)(F)F)cc3)CC2)c2ncccc21` [Compound 42, 2-(2-oxo-3-(1-(4-(trifluoromethoxy)phenylsulfonyl)piperidin-4-yl)-2,3-dihydro-1H-imidazo[4,5-b]pyridin-1-yl)acetic acid]: the IC50 fell in the range of 1000 to 10000 nM.

`CCS(=O)(=O)N1CCC(n2c(=O)n(CC(=O)O)c3cccnc32)CC1` [Compound 43, 2-(3-(1-(ethylsulfonyl)piperidin-4-yl)-2-oxo-2,3-dihydro-1H-imidazo[4,5-b]pyridin-1-yl)acetic acid]: the IC50 was 10000 to 30000 nM.

As for `CCCS(=O)(=O)N1CCC(n2c(=O)n(CC(=O)O)c3cccnc32)CC1` [Compound 44, 2-(2-oxo-3-(1-(propylsulfonyl)piperidin-4-yl)-2,3-dihydro-1H-imidazo[4,5-b]pyridin-1-yl)acetic acid], the IC50 was in the range of 1000 to 10000 nM.

In the case of `O=C(O)Cn1c(=O)n(C2CCN(S(=O)(=O)c3cccc(OC(F)(F)F)c3)CC2)c2ncccc21` [Compound 45, 2-(2-oxo-3-(1-(3-(trifluoromethoxy)phenylsulfonyl)piperidin-4-yl)-2,3-dihydro-1H-imidazo[4,5-b]pyridin-1-yl)acetic acid], the IC50 lay within 1000 to 10000 nM.

Consider `Cc1ccc(S(=O)(=O)N2CCC(n3c(=O)n(CC(=O)O)c4cccnc43)CC2)cc1` [Compound 46, 2-(2-oxo-3-(1-(p-tolylsulfonyl)piperidin-4-yl)-2,3-dihydro-1H-imidazo[4,5-b]pyridin-1-yl)acetic acid], for which the concentration for half-maximal inhibition (IC50) was in the range of 1000 to 10000 nM.

As for `COc1ccc(S(=O)(=O)N2CCC(n3c(=O)n(CC(=O)O)c4cccnc43)CC2)cc1OC` [Compound 47, 2-(3-(1-(3,4-dimethoxyphenyl-sulfonyl)piperidin-4-yl)-2-oxo-2,3-dihydro-1H-imidazo[4,5-b]pyridin-1-yl)acetic acid], the IC50 lay in the range of 10000 to 30000 nM.

For the molecule `CC(C)CS(=O)(=O)N1CCC(n2c(=O)n(CC(=O)O)c3cccnc32)CC1` [Compound 48, 2-(3-(1-(isobutylsulfonyl)piperidin-4-yl)-2-oxo-2,3-dihydro-1H-imidazo[4,5-b]pyridin-1-yl)acetic acid], the IC50 lay in the range of 1000 to 10000 nM.

For the molecule `O=C(O)Cn1c(=O)n(C2CCN(S(=O)(=O)c3cccc4cccnc34)CC2)c2ncccc21` [Compound 49, 2-(2-oxo-3-(1-(quinolin-8-ylsulfonyl)piperidin-4-yl)-2,3-dihydro-1H-imidazo[4,5-b]pyridin-1-yl)acetic acid], the IC50 was less than 1000 nM.

For the molecule `Cc1cc(C)c(S(=O)(=O)N2CCC(n3c(=O)n(CC(=O)O)c4cccnc43)CC2)c(C)c1` [Compound 50, 2-(3-(1-(mesitylsulfonyl)piperidin-4-yl)-2-oxo-2,3-dihydro-1H-imidazo[4,5-b]pyridin-1-yl)acetic acid], the IC50 is 1000 to 10000 nM.

Take `O=C(O)Cn1c(=O)n(C2CCN(S(=O)(=O)c3ccc(F)cc3Cl)CC2)c2ncccc21` [Compound 51, 2-(3-(1-(2-chloro-4-fluorophenyl-sulfonyl)piperidin-4-yl)-2-oxo-2,3-dihydro-1H-imidazo[4,5-b]pyridin-1-yl)acetic acid]: the IC50 was less than 1000 nM.

Turning to `CC(C)S(=O)(=O)N1CCC(n2c(=O)n(CC(=O)O)c3cccnc32)CC1` [Compound 52, 2-(3-(1-(isopropylsulfonyl)piperidin-4-yl)-2-oxo-2,3-dihydro-1H-imidazo[4,5-b]pyridin-1-yl)acetic acid], the IC50 fell in the range of 1000 to 10000 nM.
